Measured values: ChEMBL document CHEMBL4433247, “Discovery of 2,3'-diindolylmethanes as a novel class of PCSK9 modulators” (Bioorg Med Chem Lett, 2019)

Tests used:
Format in all cases: cell-based
[1] = target: T1, Proprotein convertase subtilisin/kexin type 9 (Homo sapiens, UniProt Q8NBP7); test: Inhibition of human PCSK9 in HepG2 cells incubated for 48 hrs by AlphaLISA assay
[2] = tested on: HepG2; test: Cytotoxicity against human HepG2 cells incubated for 24 hrs by MTT assay; conditions: hepg2, 24 h
[3] = target: T1, Proprotein convertase subtilisin/kexin type 9; test: Inhibition of human PCSK9 in HepG2 cells incubated for 24 hrs followed by medium replenishment and measured after 24 hrs by ELISA
[4] = tested on: HepG2; test: Cytotoxicity against human HepG2 cells at <50 uM incubated for 24 hrs by MTT assay; conditions: hepg2, 24 h

T1 sequence (Q8NBP7 31-152 limits assumed): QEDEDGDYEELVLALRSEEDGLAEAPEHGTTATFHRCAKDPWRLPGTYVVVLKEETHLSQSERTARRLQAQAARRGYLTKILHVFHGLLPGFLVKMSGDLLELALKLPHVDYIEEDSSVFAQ
T1 sequence (Q8NBP7 153-692 limits assumed): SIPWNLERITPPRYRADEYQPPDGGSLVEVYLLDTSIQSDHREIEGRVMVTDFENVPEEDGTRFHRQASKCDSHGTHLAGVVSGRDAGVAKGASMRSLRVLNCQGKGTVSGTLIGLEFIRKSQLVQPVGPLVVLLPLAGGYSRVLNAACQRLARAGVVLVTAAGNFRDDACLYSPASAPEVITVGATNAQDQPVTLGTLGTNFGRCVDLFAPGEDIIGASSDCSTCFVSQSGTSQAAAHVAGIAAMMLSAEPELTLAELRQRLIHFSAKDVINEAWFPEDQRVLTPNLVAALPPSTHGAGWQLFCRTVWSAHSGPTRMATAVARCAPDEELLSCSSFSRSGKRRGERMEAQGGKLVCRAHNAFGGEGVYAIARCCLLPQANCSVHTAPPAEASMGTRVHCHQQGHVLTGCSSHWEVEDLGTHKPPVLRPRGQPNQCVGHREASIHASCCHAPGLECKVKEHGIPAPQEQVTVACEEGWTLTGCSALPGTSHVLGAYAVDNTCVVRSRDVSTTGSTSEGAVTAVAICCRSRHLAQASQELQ

Row | Structure (SMILES) | IC50 ([1]; read-out: IC50) | Activity [2] | IC50 ([1]; hepg2) | IC50 [3] | Activity [4]
1 | Clc1ccc2[nH]cc(Cc3cc4ccccc4[nH]3)c2c1 | 10 µM | > 50 µM |  |  | 
2 | Cc1ccc2c(Cc3cc4ccccc4[nH]3)c[nH]c2c1 | 1.4 µM | 45 µM |  |  | 
3 | Cc1ccc2[nH]cc(Cc3cc4ccccc4[nH]3)c2c1 | 5.6 µM | > 50 µM |  |  | 
4 | Cc1ccc(S(=O)(=O)n2c(Cc3c[nH]c4c(Cl)cccc34)c(C)c3ccccc32)cc1 | 2.3 µM | > 50 µM |  |  | 
5 | Cc1ccc(S(=O)(=O)n2c(Cc3cn(C)c4ccccc34)c(C)c3ccccc32)cc1 | 1.5 µM | 45 µM |  |  | 
6 | Brc1ccc2[nH]cc(Cc3cc4ccccc4[nH]3)c2c1 |  |  | Not Active |  | 
7 | Cc1ccc(S(=O)(=O)n2c(Cc3cn(C)c4ccccc34)c(C(C)C)c3ccccc32)cc1 | 1.1 µM | > 50 µM |  |  | 
8 | Cc1ccc(S(=O)(=O)n2c(Cc3cn(C)c4ccccc34)c(-c3ccccc3)c3ccccc32)cc1 | 2.3 µM | 48 µM |  |  | 
9 | Clc1cccc2c(Cc3cc4ccccc4[nH]3)c[nH]c12 | 2.8 µM | > 50 µM |  |  | 
10 | Fc1ccc2[nH]c(Cc3c[nH]c4c(Cl)cccc34)cc2c1 | 0.25 µM | > 50 µM |  |  | 
11 | Fc1cccc2c(Cc3cc4ccccc4[nH]3)c[nH]c12 | 0.3 µM | 38 µM |  |  | 
12 | Fc1ccc2[nH]c(Cc3c[nH]c4c(F)cccc34)cc2c1 |  |  |  | 0.202 µM | Non-Toxic
13 | Cc1cccc2c(Cc3cc4ccccc4[nH]3)c[nH]c12 | 0.9 µM | > 50 µM |  |  | 
